Experimental data reported in patent US20230322805A1, “NOVEL PYRIMIDODIAZEPINE DERIVATIVES OR USES THEREOF” (SPARK BIOPHARMA, INC., priority 2020, published 2023).
Where two headings read alike, the source gives them in different places.

Legend:
[1] = target: T1, PDIA3 (PDI reductase activity) (Homo sapiens, UniProt P30101); assay: PEG maleimide modification assay of PDI oxidation state; type: cell-based; conditions: BiFC-tau HEK293 cells, 200 nM TG and 40 μM SB1617 for 3.5 hours, versus thapsigargin alone
T1 construct: endogenous in cells; host or cells: HEK293 BiFC-tau cells (TS-FITGE, CETSA, PEG-maleimide assay)
T1 sequence (P30101 25-505): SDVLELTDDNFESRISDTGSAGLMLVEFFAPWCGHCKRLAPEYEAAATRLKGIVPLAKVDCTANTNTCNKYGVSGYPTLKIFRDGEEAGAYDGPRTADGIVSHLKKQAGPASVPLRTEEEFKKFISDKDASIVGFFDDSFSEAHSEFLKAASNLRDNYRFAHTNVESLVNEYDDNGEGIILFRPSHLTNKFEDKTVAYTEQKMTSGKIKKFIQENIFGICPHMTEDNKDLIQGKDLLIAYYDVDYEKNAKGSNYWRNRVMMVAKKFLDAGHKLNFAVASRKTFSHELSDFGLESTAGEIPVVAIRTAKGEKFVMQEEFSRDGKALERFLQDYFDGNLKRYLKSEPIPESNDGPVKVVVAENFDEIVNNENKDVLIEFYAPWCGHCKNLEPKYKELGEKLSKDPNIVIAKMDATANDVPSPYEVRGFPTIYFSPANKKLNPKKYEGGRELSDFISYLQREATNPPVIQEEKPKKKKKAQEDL
Description: Cysteine modification analysis using PEG maleimide was performed according to the paper (P. Kranz, F. Neumann, A. Wolf, F. Classen, M. Pompsch, T. Ocklenburg, J. Baumann, K. Janke, M. Baumann, K. Goepelt, H. Riffkin, E. Metzen, U. Brockmeier, PDI is an essential redox-sensitive activator of PERK during the unfolded protein response (UPR). Cell Death Dis. 8, e2986 (2017)).
After compound treatment, BiFC-tau HEK293 cells were washed with cold PBS, incubated with 20 mM N-ethylmaleimide (NEM, Sigma Aldrich) in PBS for 20 minutes on ice to alkylate the reduced form of cysteine, and after washing with cold PBS, the cells were lysed in RIPA buffer. For whole cell analysis, the lysate was centrifuged at 200 g for 5 min at 4° C. to remove insoluble material. Protein concentration in the supernatant was analyzed by Pierce BCA Protein Assay Kit. Equal amounts of each lysate were treated with 12 mM tris(2-carboxyethyl)phosphine (TCEP, Sigma Aldrich) for 20 minutes at room temperature to reduce the form of oxidized PDI. Lysates were incubated with 15 mM methoxy polyethylene glycol 5000 maleimide (mPEG-mal5000, Sigma Aldrich) for 1 hour at room temperature. […]
3-2. […] Maleimides with two different molecular weights allow the bands of oxidized and reduced forms of PDI to be readily separated by electrophoresis.

[2] = Pharmacokinetics test in male ICR mice; type: in vivo; conditions: CD-1 (ICR), mouse, plasma, 5 mg/kg; for half-life: male
Description: After intravenous or intraperitoneal administration (5 mg/kg, 3.3 mL/kg) of the compound (SB1617, 5% DMSO/[…]) according to the present invention to CD-1 (ICR) male mice (7 weeks old, KOATECH, Korea), blood was collected at designated time points from the orbital venous plexus. The concentration of the compound (SB1617) according to the present invention was examined from the plasma samples using an LC-MS/MS analyzer (Agilent 1200, 4000 Qtrap). Pharmacokinetic parameters were obtained from plasma concentration-time plots using WinNonlin software (Pharsight, USA).
6-1. In order to evaluate the suitability of the compound (SB1617) according to this invention in vivo, pharmacokinetic properties and blood-brain barrier penetration properties were identified using male ICR mice according to the methods described in Examples 1-15 and 1-16.

With `CN(Cc1ccc(Cl)cc1)c1ncnc2c1[C@@H]1OC[C@H](CN2)N1S(=O)(=O)c1ccc([N+](=O)[O-])cc1` [Compound 117] the “oxidation state of PDI” value [1] was “significantly converted from the reduced form to the oxidized form”, the AUC(0-inf) ([2]; ip, I.P.) was 5650 ± 3320 ng·h/mL and the AUC(0-t) ([2]; ip, I.P.) was 6070 ± 2810 ng·h/mL. The Cmax ([2]; ip, I.P.) was 857 ± 339 ng/mL, the Tmax ([2]; ip, I.P.) was 1.67 ± 2.02 h and the AUC(0-inf) ([2]; iv, I.V.) was 4490 ± 150 ng·h/mL. For the same molecule, the AUC(0-t) ([2]; iv, I.V.) was 4190 ± 112 ng·h/mL, the clearance ([2]; iv, I.V.) was 18.7 mL/min/kg and the Vd ([2]; iv, I.V., read-out: Vss) was 6.27 ± 0.928 L/kg. For the same molecule, the half-life ([2]; ip, I.P., read-out: T1/2 (converted)) was 6.57 ± 0.0563 h, the half-life ([2]; ip, intraperitoneal injection, read-out: half-life (converted)) was ~6.6 h and the half-life ([2]; iv, I.V., read-out: T1/2 (converted)) was 5.51 ± 1.86 h.
